Measurements reported in ChEMBL document CHEMBL1777782, “Indole 5-carboxamide Thumb Pocket I inhibitors of HCV NS5B polymerase with nanomolar potency in cell-based subgenomic replicons (part 2): central amino acid linker and right-hand-side SAR studies” (Bioorg Med Chem Lett, 2011).
In brackets after ≈: the same amount, converted by molar mass.

Key:
[1] = Mean retention time in overnight-fasted Sprague-Dawley rat at 10, mg/kg, po administered by oral gavage; type: ADME, organism-based; conditions: in vivo
[2] = Tmax in overnight-fasted Sprague-Dawley rat at 10, mg/kg, po administered by oral gavage; type: ADME, organism-based; conditions: in vivo
[3] = Selectivity ratio for mammalian DNA-dependent RNA polymerase II to HCV 1b NS5B RNA dependent RNA polymerase
[4] = Half life in human liver microsomes at 10 uM
physchem = conditions: phosphate buffer, pH 7.2
[5] = AUC in overnight-fasted Sprague-Dawley rat at 10, mg/kg, po administered by oral gavage; type: ADME, organism-based; conditions: plasma
Hepatitis C virus = assay: Antiviral activity against Hepatitis C virus genotype 1b infected in human Huh-7 cells assessed as inhibition of viral replication after 72 hrs; type: functional, organism-based, Hepacivirus hominis; conditions: Huh-7, 72 h
[6] = Cmax in overnight-fasted Sprague-Dawley rat at 10, mg/kg, po administered by oral gavage; type: ADME, organism-based; conditions: in vivo
[7] = Selectivity ratio for polio virus RNA-dependent RNA polymerase to HCV 1b NS5B RNA dependent RNA polymerase
[8] = Inhibition of HCV 1b NS5B RNA dependent RNA polymerase by scintillation proximity assay; design: species or system Hepacivirus hominis
[9] = Permeability across apical to basolateral side in human Caco2 cells; conditions: Caco-2
[10] = Half life in rat liver microsomes at 10 uM; type: ADME, Microsome

## Cn1c(-c2ccccn2)c(C2CCCCC2)c2ccc(C(=O)NC(C)(C)C(=O)Nc3ccc(CCC(=O)O)cc3)cc21
[1]
  MRT: 1.7 h
[2]
  Tmax: 30 min
[3]
  Ratio: > 150
[4]; liver microsomes
  half-life at 10 µM: 63 min
physchem
  solubility thermodynamic at 24 h: 244 µg/mL (≈ 431 µM)
[5]
  AUC: 0.81 µM·h
Hepatitis C virus
  EC50: 267 nM
[6]
  Cmax: 630 nM
[7]
  Ratio: > 150
[8]
  IC50: 132 nM
[9]
  Papp A→B: 12.7 ×10⁻⁶ cm/s

## CN1CC[C@@](NC(=O)c2ccc3c(C4CCCCC4)c(-c4ccccn4)n(C)c3c2)(C(=O)Nc2ccc(/C=C/C(=O)O)cc2)C1
[1]
  MRT: 3.8 h
[2]
  Tmax: 30 min
[3]
  Ratio: > 150
[4]; microsomes
  half-life at 10 µM: 456 min
physchem
  solubility thermodynamic at 24 h: 15 µg/mL (≈ 24.8 µM)
[5]
  AUC: 0.81 µM·h
[10]
  half-life at 10 µM: 18 min
Hepatitis C virus
  EC50: 34 nM
[6]
  Cmax: 320 nM
[7]
  Ratio: > 150
[8]
  IC50: 21 nM
[9]
  Papp A→B: 8.1 ×10⁻⁶ cm/s

## Cn1c(-c2ccccn2)c(C2CCCCC2)c2ccc(C(=O)NC3(C(=O)Nc4ccc(/C=C/C(=O)O)cc4)CCC3)cc21
[2]
  Tmax: 30 min
[3]
  Ratio: > 150
[4]; microsomes
  half-life at 10 µM: 50 min
physchem
  solubility thermodynamic at 24 h: 6 µg/mL (≈ 10.4 µM)
[5]
  AUC: 0.35 µM·h
[10]
  half-life at 10 µM: 17 min
Hepatitis C virus
  EC50: 43 nM
[6]
  Cmax: 290 nM
[7]
  Ratio: > 150
[8]
  IC50: 52 nM
[9]
  Papp A→B: 39 ×10⁻⁶ cm/s

## Cn1c(-c2ccccn2)c(C2CCCCC2)c2ccc(C(=O)NC(C)(C)C(=O)Nc3ccc(/C=C/C(=O)O)cc3)cc21
[2]
  Tmax: 15 min
